Test results published in patent publication US20240285670A1, “THERAPEUTIC TREATMENT OF TUMORS BY BLOCKING THE HEME SYNTHESIS-EXPORT AXIS” (Università degli Studi di Torino, priority 2021, published 2024).

Key:
SHSY5Y cells = test: Proliferation of SHSY5Y cells by crystal violet staining; type: cell-based, human; conditions: 5 mM ALA at day 0, no medium refresh
Protocol: (A) Heme content in SHSY5Y cells non-treated (NT) or treated with 5 mM ALA for 15 hours. Values are expressed as pmol heme/mg protein. Data represent mean±SEM, n=3; *=P<0.05. (B, C) qRT-PCR analysis of the expression of ALAS1 (B) and FLVCR1a (C) in SHSY5Y cells non-treated (NT) or treated with 5 mM ALA for 15 hours. Transcript abundance, normalized to beta-actin mRNA expression, is expressed as a fold increase over a calibrator sample. Data represent mean±SEM, n=4. For statistical analyses, an unpaired Student's t-test was used; *p<0.05. (D) qRT-PCR analysis of the expression of ALAS1 in SKCO1 cells untreated (NT) or treated with 5 mM ALA for 24 hours. Transcript abundance, normalized to beta-actin mRNA expression, is expressed as a fold increase over a calibrator sample. Data represent mean±SEM, n=5. […] Band intensities were measured by densitometry and normalized to beta-actin expression. […] (F) Proliferation of SHSY5Y cells assessed by crystal violet staining at different time points (starting from the day after plating, named “day 0”). Treatment with 5 mM ALA occurred at “day 0” and cells were monitored until the end of the experiment without medium refresh. […] (G) SKCO1 cells viability measured by the CellTiter-Fluor Cell Viability Assay (Promega, Madison, WI USA, catalog n°G6080) at different time points, starting from the day after plating (named “day 0”), as a readout of cell proliferation. […]

Caco2 cells = test: Heme content (fluorescence assay) in Caco2 cells; type: cell-based, human; conditions: FLVCR1a-silenced vs scramble shRNA Caco2 cells, 5 mM 5-ALA, time course
Protocol: (A) Heme content in Caco2 cells treated with 5 mM 5-ALA (black bars and white bars) or with 5 mM 5-ALA+0.5 mM SA (light grey outlined bars) for the indicated time points. […] Values are expressed as relative fluorescence intensity. Data represent mean±SEM, n=2. For statistical analyses, a two-way analysis of variance was used, followed by the Bonferroni correction for multiple group comparisons; **=p<0.01, ***=p<0.001. 5-ALA, 5-aminolevulinic acid; SA, succinylacetone. (B) Intracellular 5-ALA levels. […] Values are expressed as peak area/μg proteins. Data represent mean±SEM of n=4 wells pooled from two independent experiments. For statistical analyses, an unpaired Student's t-test was used; **=p<0.01. 5-ALA, 5-aminolevulinic acid. […] Values are expressed as peak area/μg proteins. […] Transcript abundance, normalized to beta-actin mRNA expression, is expressed as a fold increase over a calibrator sample. […] Band intensities were measured by densitometry and normalized to vinculin expression. […]
Intracellular heme concentration was measured using a fluorescence assay, as previously reported (Sinclair et al., 2001). […] Fluorescence (wavelength: excitation 405 nm-emission 660-720 nm) of the resultant protoporphyrin was assessed on a Glomax Multi Detection System (Promega Corporation, Madison WI, USA).
The endogenous protoporphyrin content (measured in parallel unheated samples in oxalic acid) was subtracted. […]

Q: `Cl.NCC(=O)CCC(=O)O` [5-ALA, 5-Aminolevulinic acid hydrochloride] was tested. Which cell proliferation (SHSY5Y cells) did it give?
A: reduced SHSY5Y cell proliferation

Q: How did the “intracellular heme upon induction of heme biosynthesis” value (Caco2 cells) turn out when “FLVCR1a shRNA: shRNA specifically down-regulating FLVCR1a without targeting FLVCR1b; pLKO.1 lentiviral clone TRCN0000059599, antisense SEQ ID No.: 2 (antisense TTGCTAATGATGCTGTACTGG; sense CCAGTACAGCATCATTAGCAA)” was run?
A: faster and higher increase in the amount of intracellular heme than control cells
